Experimental data as given in patent publication US20190099404A1, “ANALGESIC COMPOUNDS” (ZENO ROYALTIES & MILESTONES, LLC, priority 2016, published 2019).

System: male ICR mice
Assay: Formalin Paw Test
Format: in vivo
Settings: 30 mg/kg, intraperitoneal, given 10 minutes before formalin; for Early Phase: early/acute phase (0-10 minutes) after 2% formalin in hind paw; for Late Phase: late/tonic phase (10-35 minutes) after 2% formalin in hind paw
Method: One test compound or the vehicle was administered to each mouse in each test group (8 mice per group). Non-fasted male ICR mice weighing 23±3 g were used. Test compounds were administered at a concentration of 30 mg/kg; morphine was administered at a concentration of 10 mg/kg; and acetaminophen was administered at a concentration of >100 mg/kg. The control group received the vehicle (5% DMSO/15% PEG400/10% HPbCD/0.9% Saline). After 10 minutes, a 2% formalin solution (0.02 mL) was injected into one hind paw (sub-plantar) of each mouse. Responses were measured every 5 minutes after the formalin injection for 35 minutes.
The results in Table A are for intraperitoneal administration. In Table A, ‘A’ designates <70 licks/sec, ‘B’ designates ≥70 licks/sec and <165 licks/sec, and ‘C’ designates ≥165 licks/sec.

Row | SMILES | Early Phase | Late Phase
1 | Nc1ccc2[nH]cnc2c1 [Compound 1] | B (‘B’ designates ≥70 licks/sec and <165 licks/sec) | C (‘C’ designates ≥165 licks/sec)
2 | Cn1ncc2cc(N)ccc21 [Compound 2] | A (‘A’ designates <70 licks/sec) | B (‘B’ designates ≥70 licks/sec and <165 licks/sec)
3 | NCc1cc2ccccn2n1 [Compound 3] | A (‘A’ designates <70 licks/sec) | C (‘C’ designates ≥165 licks/sec)
4 | NCc1cc2cc(F)ccc2[nH]1 [Compound 4] | A (‘A’ designates <70 licks/sec) | A (‘A’ designates <70 licks/sec)
5 | NCc1nc2cc(C(F)(F)F)ccc2s1 [Compound 5] | A (‘A’ designates <70 licks/sec) | A (‘A’ designates <70 licks/sec)
6 | Nc1nc2ccc(C(F)(F)F)cc2s1 [Compound 6] | A (‘A’ designates <70 licks/sec) | A (‘A’ designates <70 licks/sec)
7 | NCCc1nc2ccc(F)cc2[nH]1 [Compound 7] | B (‘B’ designates ≥70 licks/sec and <165 licks/sec) | A (‘A’ designates <70 licks/sec)
8 | NCc1nc2cc(F)ccc2[nH]1 [Compound 9] | A (‘A’ designates <70 licks/sec) | A (‘A’ designates <70 licks/sec)
9 | CC(C)(C)c1ccc2nc(N)sc2c1 [Compound 10] | A (‘A’ designates <70 licks/sec) | A (‘A’ designates <70 licks/sec)
10 | NCc1ccc2cncn2c1 [Compound 11] | B (‘B’ designates ≥70 licks/sec and <165 licks/sec) | C (‘C’ designates ≥165 licks/sec)
